Drawing on patent EP4548976A1, “ANTIVIRAL COMPOUNDS AND COMPOSITIONS THEREFROM” (Consejo Superior De Investigaciones Científicas, priority 2023, dated 2025), this text covers CC50, EC50 and EC90 for 20 compounds.

One data set in a line: in vitro. Conditions: human.
The subject of data set [1] is SARS-CoV-2 stock strain NL/2020. As to the kind of experiment: Antiviral activity in A549-ACE2 cells using viral antigen quantitation (SARS-CoV-2 N protein immunofluorescence). In kind it is cell-based. Conditions: Severe acute respiratory syndrome coronavirus 2, MOI 0.005, 48 h; for EC50: concentration reducing SARS-CoV-2 infection efficiency by 50% vs vehicle; for EC90: concentration reducing SARS-CoV-2 infection efficiency by 90% vs vehicle.

Structures are written as SMILES.

In “in vitro”, `COC(=O)c1cc(-c2ccc3cc[nH]c3c2)ccc1NC(C#N)[C@H](Cc1c[nH]c2ccccc12)NC(=O)OC(C)(C)C` (mixture of isomers) [Example 11, Methyl 2-(((1RS,2S)-2-((tert-butoxycarbonyl)amino)-1-cyano-3-(1H-indol-3-yl)propyl)amino)-5-(1H-indol-6-yl)benzoate] returned a CC50 of 30 µM. Further, in data set [1], the EC50 (in general, the concentration giving half of the maximal effect) is 4 µM and the 90% effect level (EC90) was put at 8 µM.
Regarding `COC(=O)c1cc(-c2ccc(NC(C)=O)nc2)ccc1NC(C#N)[C@H](Cc1c[nH]c2ccccc12)NC(=O)OC(C)(C)C` (mixture of isomers) [Example 29, Methyl 5-(6-acetamidopyridin-3-yl)-2-(((1RS,2S)-2-((tert-butoxycarbonyl)amino)-1-cyano-3-(1H-indol-3-yl)propyl)amino)benzoate], the CC50 in “in vitro” was greater than 50 µM. Further, in data set [1], the EC50 stood at 3 µM and the EC90 (commonly the point of the concentration-response curve where the effect stands at 90%) stood at 8 µM.
Taken in the same sequence, the figures for `COC(=O)c1cc(-c2ccc(N3CCOCC3)cc2)ccc1NC(C#N)[C@H](Cc1c[nH]c2cc(Br)ccc12)NC(=O)OC(C)(C)C` (mixture of isomers) [Example 2, Methyl 4-(((1RS,2S)-3-(6-bromo-1H-indol-3-yl)-2-((tert-butoxycarbonyl)amino)-1-cyanopropyl)amino)-4'-morpholino-[1,1'-biphenyl]-3-carboxylate] were greater than 50 µM, 1.6 µM and 6 µM.
In the same order, the values of `COC(=O)c1cc(-c2ccc3[nH]cnc3c2)ccc1NC(C#N)[C@H](Cc1c[nH]c2ccccc12)NC(=O)OC(C)(C)C` (mixture of isomers) [Example 15, Methyl 5-(1H-benzo[d]imidazol-5-yl)-2-(((1RS,2S)-2-((tert-butoxycarbonyl)amino)-1-cyano-3-(1H-indol-3-yl)propyl)amino)benzoate] are 50 µM, 1 µM and 4 µM.
In the same order, the values of `C#Cc1ccc(-c2cccc3[nH]cc(C[C@H](NC(=O)OC(C)(C)C)C(C#N)Nc4ccc(-c5ccc(N6CCOCC6)cc5)cc4C(=O)OC)c23)cc1` (mixture of isomers) [Example 6, Methyl 4-(((1RS,2S)-2-((tert-butoxycarbonyl)amino)-1-cyano-3-(4-(4-ethynylphenyl)-1H-indol-3-yl)propyl)amino)-4'-morpholino-[1,1'-biphenyl]-3-carboxylate] are greater than 50 µM, 8 µM and 20 µM.
`COC(=O)c1cc(-c2cnn(Cc3ccccc3)c2)ccc1NC(C#N)[C@H](Cc1c[nH]c2ccccc12)NC(=O)OC(C)(C)C` (mixture of isomers) [Example 17, Methyl 5-(1-benzyl-1H-pyrazol-4-yl)-2-(((1RS,2S)-2-((tert-butoxycarbonyl)amino)-1-cyano-3-(1H-indol-3-yl)propyl)amino)benzoate] came in with a CC50 in the data set “in vitro” greater than 50 µM. Further, in data set [1], the EC50 came to 1 µM and it took 2 µM to reach the 90% level (EC90).
In the same order, the values of `COC(=O)c1cc(-c2c[nH]c3ncccc23)ccc1NC(C#N)[C@H](Cc1c[nH]c2ccccc12)NC(=O)OC(C)(C)C` (mixture of isomers) [Example 18, Methyl 2-(((1RS,2S)-2-((tert-butoxycarbonyl)amino)-1-cyano-3-(1H-indol-3-yl)propyl)amino)-5-(1H-pyrrolo[2,3-b]pyridin-3-yl)benzoate] are 10 µM, 6 µM and 9 µM.
In the same order, the values of `COC(=O)c1cc(-c2cc3ccccc3o2)ccc1NC(C#N)[C@H](Cc1c[nH]c2ccccc12)NC(=O)OC(C)(C)C` (mixture of isomers) [Example 12, Methyl 5-(benzofuran-2-yl)-2-(((1RS,2S)-2-((tert-butoxycarbonyl)amino)-1-cyano-3-(1H-indol-3-yl)propyl)amino)benzoate] are greater than 50 µM, 1.85 µM and 5 µM.
In the same order, the values of `COC(=O)c1cc(-c2ccc(C(=O)N3CCOCC3)cc2)ccc1NC(C#N)[C@H](Cc1c[nH]c2ccccc12)NC(=O)OC(C)(C)C` (mixture of isomers) [Example 8, Methyl 4-(((1RS,2S)-2-((tert-butoxycarbonyl)amino)-1-cyano-3-(1H-indol-3-yl)propyl)amino)-4'-(morpholine-4-carbonyl)-[1,1'-biphenyl]-3-carboxylate] are greater than 50 µM, 0.9 µM and 2 µM.
Compound `CC(C)(C)OC(=O)N[C@@H](Cc1c[nH]c2ccccc12)C(C#N)Nc1ccccc1C(=O)N1CCCCCC1` (mixture of isomers) [Example 31, tert-Butyl ((1RS,2S)-1-((2-(azepane-1-carbonyl)phenyl)amino)-1-cyano-3-(1H-indol-3-yl)propan-2-yl)carbamate] yielded a CC50 in the data set “in vitro” of 36 µM. Further, in data set [1], it took 8 µM to reach a half-maximal effect (EC50) and it took 39 µM to reach the 90% level (EC90).
In the same order, the values of `COC(=O)c1cc(-c2ccc3[nH]ccc3c2)ccc1NC(C#N)[C@H](Cc1c[nH]c2ccccc12)NC(=O)OC(C)(C)C` (mixture of isomers) [Example 9, Methyl 2-(((1RS,2S)-2-((tert-butoxycarbonyl)amino)-1-cyano-3-(1H-indol-3-yl)propyl)amino)-5-(1H-indol-5-yl)benzoate] are 50 µM, less than 0.4 µM and 5 µM.
Taken in the same sequence, the figures for `COC(=O)c1cc(-c2ccc(N3CCOCC3)cc2)ccc1NC(C#N)[C@H](Cc1c[nH]c2c(Br)cccc12)NC(=O)OC(C)(C)C` (mixture of isomers) [Example 3, Methyl 4-(((1RS,2S)-3-(7-bromo-1H-indol-3-yl)-2-((tert-butoxycarbonyl)amino)-1-cyanopropyl)amino)-4'-morpholino-[1,1'-biphenyl]-3-carboxylate] were greater than 50 µM, 3.5 µM and 8 µM.
Taken in the same sequence, the figures for `COC(=O)c1cc(-c2cccc3[nH]ncc23)ccc1NC(C#N)[C@H](Cc1c[nH]c2ccccc12)NC(=O)OC(C)(C)C` (mixture of isomers) [Example 30, Methyl 2-(((1RS,2S)-2-((tert-butoxycarbonyl)amino)-1-cyano-3-(1H-indol-3-yl)propyl)amino)-5-(1H-indazol-4-yl)benzoate] were 10 µM, 1 µM and 2 µM.
`COC(=O)c1cc(-c2ccc3c(ccn3C(=O)OC(C)(C)C)c2)ccc1NC(C#N)[C@H](Cc1c[nH]c2ccccc12)NC(=O)OC(C)(C)C` (mixture of isomers) [Example 19, tert-Butyl 5-(4-(((1RS,2S)-2-((tert-butoxycarbonyl)amino)-1-cyano-3-(1H-indol-3-yl)propyl)amino)-3-(methoxycarbonyl)phenyl)-1H-indole-1-carboxylate] displayed a CC50 in “in vitro” greater than 50 µM. In data set [1], this compound returned an EC50 of 6 µM and a concentration for an effect of 90% (EC90) of 31 µM.
In the same order, the values of `COC(=O)c1cc(-c2ccc(CN3CCOCC3)cc2)ccc1NC(C#N)[C@H](Cc1c[nH]c2ccccc12)NC(=O)OC(C)(C)C` (mixture of isomers) [Example 10, Methyl 4-(((1RS,2S)-2-((tert-butoxycarbonyl)amino)-1-cyano-3-(1H-indol-3-yl)propyl)amino)-4'-(morpholinomethyl)-[1,1'-biphenyl]-3-carboxylate] are greater than 50 µM, 0.9 µM and 2 µM.
Take `COC(=O)c1cc(-c2ccnn2C2CCCCO2)ccc1NC(C#N)[C@H](Cc1c[nH]c2ccccc12)NC(=O)OC(C)(C)C` (mixture of isomers) [Example 23, Methyl 2-(((1RS,2S)-2-((tert-butoxycarbonyl)amino)-1-cyano-3-(1H-indol-3-yl)propyl)amino)-5-(1-(tetrahydro-2H-pyran-2-yl)-1H-pyrazol-5-yl)benzoate]: in the data set “in vitro”, the CC50 was 50 µM. In data set [1], this compound returned an EC50 of 4 µM and an EC90 of 8 µM.
Taken in the same sequence, the figures for `COC(=O)c1cc(-c2ccc3[nH]ncc3c2)ccc1NC(C#N)[C@H](Cc1c[nH]c2ccccc12)NC(=O)OC(C)(C)C` (mixture of isomers) [Example 16, Methyl 2-(((1RS,2S)-2-((tert-butoxycarbonyl)amino)-1-cyano-3-(1H-indol-3-yl)propyl)amino)-5-(1H-indazol-5-yl)benzoate] were 10 µM, 6 µM and 9 µM.
Taken in the same sequence, the figures for `COC(=O)c1cc(-c2ccc(F)c(-c3nn[nH]n3)c2)ccc1NC(C#N)[C@H](Cc1c[nH]c2ccccc12)NC(=O)OC(C)(C)C` (mixture of isomers) [Example 21, Methyl 4-(((1RS,2S)-2-((tert-butoxycarbonyl)amino)-1-cyano-3-(1H-indol-3-yl)propyl)amino)-4'-fluoro-3'-(2H-tetrazol-5-yl)-[1,1'-biphenyl]-3-carboxylate] were greater than 50 µM, 6 µM and greater than 50 µM.
`COC(=O)c1cc(-c2ccc(N3CCOCC3)cc2)ccc1NC(C#N)[C@H](Cc1c[nH]c2cccc(Br)c12)NC(=O)OC(C)(C)C` (mixture of isomers) [Example 4, Methyl 4-(((1RS,2S)-3-(4-bromo-1H-indol-3-yl)-2-((tert-butoxycarbonyl)amino)-1-cyanopropyl)amino)-4'-morpholino-[1,1'-biphenyl]-3-carboxylate] showed a CC50 in the data set “in vitro” greater than 50 µM. Moreover, in data set [1], the EC50 came to 2 µM and the EC90 came to 7.5 µM.
In the same order, the values of `COC(=O)c1cc(-c2ccc(N3CCOCC3)cc2)ccc1NC(C#N)[C@H](Cc1c[nH]c2ccc(Br)cc12)NC(=O)OC(C)(C)C` (mixture of isomers) [Example 1, Methyl 4-(((1RS,2S)-3-(5-bromo-1H-indol-3-yl)-2-((tert-butoxycarbonyl)amino)-1-cyanopropyl)amino)-4'-morpholino-[1,1'-biphenyl]-3-carboxylate] are greater than 50 µM, 0.8 µM and 6 µM.
